Measured values: article PMC2360155, “Novel retinoic acid metabolism blocking agents have potent inhibitory activities on human breast cancer cells and tumour growth” (British Journal of Cancer, 2007)

Assays:
RARβ = molecular target: T1, RARβ (Mus musculus, UniProt P22605); experiment: Transactivation assay (RARE-CAT reporter, CV-1 cells), RARβ; format: cell-based; settings: 50% of maximal activity obtained with 10^−6 M all-trans-RA
T1 construct: expressed in transfected cells; host or cells: CV-1 cells
T1 sequence (P22605 1-448 isoform P22605-3): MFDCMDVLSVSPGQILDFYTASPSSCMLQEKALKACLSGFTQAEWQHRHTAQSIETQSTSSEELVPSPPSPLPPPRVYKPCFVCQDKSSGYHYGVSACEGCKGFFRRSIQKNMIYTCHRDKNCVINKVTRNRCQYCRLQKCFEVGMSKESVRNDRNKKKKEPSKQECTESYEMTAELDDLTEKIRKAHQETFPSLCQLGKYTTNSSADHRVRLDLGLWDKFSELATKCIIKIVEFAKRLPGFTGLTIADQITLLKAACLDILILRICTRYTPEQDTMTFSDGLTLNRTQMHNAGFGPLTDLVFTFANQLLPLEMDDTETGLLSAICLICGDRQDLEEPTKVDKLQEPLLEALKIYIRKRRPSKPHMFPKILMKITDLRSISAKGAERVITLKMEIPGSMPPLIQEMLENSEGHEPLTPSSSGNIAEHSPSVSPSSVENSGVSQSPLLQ
Procedure: Briefly, CV-1 cells were cotransfected with 4 μg RAR subtype (RARα, RARβ or RARγ) expression vector construct in pSG5, 4 μg RARE-CAT reporter DNA and 1 μg pCMV-β-gal DNA. Twenty-four hours following transfection, the cells were treated with various concentrations of each RAMBA ranging from 10^−11–10^−5 M along with an ethanol carrier control. Additional cells were treated with 10^−6 M all-trans-RA for normalisation. Twenty-four hours later, the cells were harvested and CAT and β-gal activities were assayed.

MCF-7 tumour xenografts = experiment: In vivo antitumour study, ATRA and VN/14-1 alone or in combination, MCF-7 tumour xenografts; parameters: species or system ovariectomised female athymic nude mice; settings: single agents: ATRA 33.0, VN/14-1 16.5 μmol kg^−1 day^−1; 36 days
Procedure: The second experiment was similar to that described above, but consisted of only four groups. When the tumour volume has reached about 100 mm^3, the mice were randomly divided in to four groups of five mice each. […] These treatments continued for 36 days and the tumours were measured and processed as described above.
Procedure was similar to that described in Figure 8A.

PARP = experiment: Western immunoblotting for cleaved PARP in MCF-7 cells; format: cell-based, human; settings: 5 μM, 6 days
Procedure: (§1) At the end of the treatment, cells were scrapped and collected by washing with ice-cold PBS in a centrifuge tube. Cells were centrifuged at 2500 r.p.m. for 10 min, the pellet was again washed with ice-cold PBS and centrifuged. The cell pellet was then suspended in chilled cell lysis buffer (0.1 M Tris–HCl, 0.5% Triton X-100, protease inhibitor cocktail) and sonicated on ice for 10–15 s. The homogenate was kept on ice for 30 min and then centrifuged at 13 000 r.p.m. for 30 min. The supernatant was used as cell lysate. The cell lysates were stored at −80°C. Protein concentration of the cell lysates was determined using Bio-Rad protein assay reagents.
(§2) Protein lysates from MCF-7 and T47D cells were subjected to sodium dodecyl sulphate–polyacrylamide gel electrophoresis (SDS–PAGE) and immunoblotted for different proteins. […] Immunoreactive bands were visualised using the enhanced chemiluminescence detection reagents and analysis system (Amersham Bioscences) according to the manufacturer's instructions and quantified by densitometry using ImageQuant software version 5.
(§3) Figure 7 (A) Western immunoblotting of whole-cell lysates of treated MCF-7 and T47D cells for the expression of Bad. […] Numbers below the blot show fold increase in expression of the protein as analysed by ImageQuant densitometry analysis. […]

Bad = experiment: Western immunoblotting for Bad in MCF-7 and T47D cells; format: cell-based, human; settings: 1, 5 and 10 μM each; 6 days; no significant dose-dependent effect
Procedure: as §1, §2, §3

caspase-9 = experiment: Western immunoblotting for caspase-9 in T47D cells; format: cell-based, human; settings: 6 days
Procedure: as §1
Protein lysates from MCF-7 and T47D cells were subjected to sodium dodecyl sulphate–polyacrylamide gel electrophoresis (SDS–PAGE) and immunoblotted for different proteins. Equal amounts of protein (25–50 μg) were subjected to SDS–PAGE at 60 V for 3 h using the mini PROTEAN3 electrophoresis module assembly (Bio-Rad, Hercules, CA, USA), and transferred to nitrocellulose membranes (Hybond ECL, Amersham). Immunodetections were carried out using antibodies against CK 8/18 (1° antibody – 1 : 8000 in 10% milk PBST), E-cadherin (1° antibody – 1 : 1000 in 5% milk in TBST) and ER-α (1° antibody – 1 : 200 in 5% milk PBST) purchased from Santa Cruz Biotechnology Inc. Antibodies against PARP (1° antibody – 1 : 1000 in 5% milk TBST), cyclin- D1 (1° antibody – 1 : 2000 in 10% milk TBST), caspase-9 (1° antibody – 1 : 1000 in 10% milk TBST) and BAD (1° antibody – 1 : 1000 in 5% BSA TBST) were obtained from Cell Signaling Technology. Antibody for β-actin was obtained from Calbiochem (CA, USA). Secondary anti-mouse IgG HRP conjugate antibody was purchased from Calbiochem and Bio-Rad. Secondary anti-rabbit IgG HRP conjugate antibody was bought from Bio-Rad as well as from Kirkegaard and Perry laboratories (Gaithersburg, MD, USA). Immunoreactive bands were visualised using the enhanced chemiluminescence detection reagents and analysis system (Amersham Bioscences) according to the manufacturer's instructions and quantified by densitometry using ImageQuant software version 5.
Figure 7 (A) Western immunoblotting of whole-cell lysates of treated MCF-7 and T47D cells for the expression of Bad. […] Numbers below the blot show fold increase in expression of the protein as analysed by ImageQuant densitometry analysis. Membranes were stripped and probed for β-actin to verify equal protein loading. Primary antibody (Cell Signaling Technology) 1 : 1000 in 5% BSA TBST overnight at 4°C and secondary antibody (anti-rabbit) 1 : 2000 for 1 h at RT. This experiment was repeated twice with similar results. […] Numbers below the blot show fold increase in the active form of caspase-9 as compared with control. Membrane was stripped and probed for β-actin to verify equal amount of protein loading. The primary and secondary antibodies and their dilutions are as follows: primary antibody (Cell Signaling Technology), 1 : 1000 in 10% milk TBST overnight at 4°C and secondary antibody (anti-rabbit) 1 : 2000 in 10% milk TBST for 1 h at RT. Densitometry analysis was performed by ImageQuant software. This experiment was repeated twice with similar results. (C) Western immunoblotting of whole-cell lysates of treated MCF-7 and T47D cells for the expression of full-length and cleaved PARP. […] T47D cells were treated with RAMBAs (VN/50-1 and VN/14-1) for 6 days and then cell lysates were electrophoresed using 10% SDS–PAGE and subjected to Western blotting. Lane 1: control; lanes 2–4: VN/50-1 (1, 5 and 10 μM); lanes 5–7: VN/14-1 (1, 5 and 10 μM). Numbers below the blot show fold increase in expression of the protein as analysed by ImageQuant densitometry analysis. Membranes were stripped and probed for β-actin to verify equal protein loading. Primary antibody (Cell Signaling Technology) 1 : 1000 in 5% milk TBST overnight at 4°C and secondary antibody (anti-rabbit) 1 : 2000 for 1 h at RT. […]

MDA-MB-231 cells = tested on: MDA-MB-231 cells; parameters: method as in Patel et al. (2004); settings: inhibition of cell proliferation by 50%; ref Patel et al. (2004); read-out: Cellular IC50, MDA-MB-231; cited from earlier work

SMILES | EC50 (RARβ) | Tumour growth inhibition compared with controls (in words) (MCF-7 tumour xenografts) | Increase in level of cleaved PARP (89 kDa) compared with control (PARP) | Upregulation of Bad protein (Bad) | Expression of procaspase-9 (47 kDa), control = 1 (caspase-9; 5 μM) | Increase of active form of caspase-9 (37 kDa) compared with untreated control (caspase-9; 5 μM) | Expression of procaspase-9 (47 kDa), control = 1 (caspase-9; 10 μM) | Increase of active form of caspase-9 (37 kDa) compared with untreated control (caspase-9; 10 μM) | IC50 (MDA-MB-231 cells)
CC1=C(/C=C/C(C)=C/C=C/C(C)=C/C(=O)O)C(C)(C)CCC1n1ccnc1 (centres unmarked) [VN/14-1] | 1.5 µM | modest tumour growth inhibition | almost two-fold increases | about two-fold | 0.4 fold | 1.7 fold | 0.7 fold | 1.7 fold | 
CC1=C(/C=C/C(C)=C/C=C/C(C)=C/C(=O)O)C(C)(C)CCC1 [ATRA, all-trans-retinoic acid, reference compound] |  | modest tumour growth inhibition | almost two-fold increases | about two-fold | 0.4 fold | 1.7 fold | 0.3 fold | 1.8 fold | 
CC1=C(/C=C/C(C)=C/C=C/C(C)=C/C(=O)Nc2ccc(O)cc2)C(C)(C)CCC1n1ccnc1 (centres unmarked) [VN/66-1] |  |  |  |  |  |  |  |  | 5.62 µM
CC1=C(/C=C/C(C)=C/C=C/C(C)=C\C(=O)Nc2ccc(O)cc2)C(C)(C)CCC1n1ccnc1 (centres unmarked) [VN/69-1] | > 10 µM |  |  |  |  |  |  |  | 
